Experimental findings from the supplement of paper PMC10307832 are described below.

Assay in all cases: relative viability (nuclei count vs DMSO), 5 days (fraction); higher = more cells survive
Compound in test [1]: c1ccc2c(CCNc3ccc(Nc4ccncc4)cc3)c[nH]c2c1 [Serdemetan] + N=C(N)NC(=N)NCCc1ccccc1 [Phenformin] (partner 250 µM)
The essentials: (§1)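 Values are medians from duplicate plates. Each reflects relative viability, defined as the nuclei count of treated wells over that of vehicle wells. Lung cancer cell lines in 1536-well plates were pin-tool dosed one day after seeding with one drug alone or with a fixed anchor-drug dose plus five library-drug doses (not always all listed) in √10 steps, then fixed, stained and imaged at 4× after 5 days.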

Compound in test [2]: c1ccc2c(CCNc3ccc(Nc4ccncc4)cc3)c[nH]c2c1 [Serdemetan] + Cc1nc(NC(=O)N2CCC[C@H]2C(N)=O)sc1-c1ccnc(C(C)(C)C(F)(F)F)c1 [Alpelisib] (partner 2 µM)
The essentials:
as §1

Compound in test [3]: c1ccc2c(CCNc3ccc(Nc4ccncc4)cc3)c[nH]c2c1 [Serdemetan] + Cc1cc(Nc2cc(N3CCN(C)CC3)nc(Sc3ccc(NC(=O)C4CC4)cc3)n2)n[nH]1 [Tozasertib] (partner 0.1 µM)
The essentials:
as §1

Compound in test [4]: c1ccc2c(CCNc3ccc(Nc4ccncc4)cc3)c[nH]c2c1 [Serdemetan] + CC(=O)c1c(C)c2cnc(Nc3ccc(N4CCNCC4)cn3)nc2n(C2CCCC2)c1=O [Palbociclib] (partner 0.5 µM)
The method, boiled down:
as §1

For the cell line COR-L 105, the relative viability turned out to be 0.507 in test [1] (first compound 0.04 µM); 0.418 in test [1] (first compound 0.1265 µM); 0.443 in test [1] (first compound 0.4 µM); 0.492 in test [1] (first compound 1.265 µM); 0.431 in test [1] (first compound 4 µM); 0.906 in test [2] (first compound 0.04 µM). Further, the relative viability was determined as 1.08 in test [2] (first compound 0.1265 µM); 0.922 in test [2] (first compound 0.4 µM); 1.04 in test [2] (first compound 1.265 µM); 0.865 in test [2] (first compound 4 µM); 0.313 in test [3] (first compound 0.04 µM); 0.336 in test [3] (first compound 0.1265 µM). Also, the relative viability in test [3] (first compound 0.4 µM) was 0.357; in test [3] (first compound 1.265 µM), 0.405; in test [3] (first compound 4 µM), 0.366; in test [4] (first compound 0.04 µM), 0.4; in test [4] (first compound 0.1265 µM) it was 0.403; in test [4] (first compound 0.4 µM), 0.359. Also, the relative viability in test [4] (first compound 1.265 µM) worked out at 0.297; in test [4] (first compound 4 µM) it was 0.411.
Turning to Calu-6, the relative viability worked out at 0.934 in test [2] (first compound 0.04 µM); 1.01 in test [2] (first compound 0.1265 µM); 0.929 in test [2] (first compound 0.4 µM); 0.788 in test [2] (first compound 1.265 µM); 0.674 in test [2] (first compound 4 µM).
Turning to ChaGo-K-1, the relative viability turned out to be 0.48 in test [1] (first compound 0.04 µM); 0.484 in test [1] (first compound 0.1265 µM); 0.458 in test [1] (first compound 0.4 µM); 0.216 in test [1] (first compound 1.265 µM); 0.25 in test [1] (first compound 4 µM); 0.231 in test [3] (first compound 0.04 µM). Further, the relative viability in test [3] (first compound 0.1265 µM) came out at 0.232; in test [3] (first compound 0.4 µM) it was 0.2; in test [3] (first compound 1.265 µM) it was 0.178; in test [3] (first compound 4 µM) it was 0.167; in test [4] (first compound 0.04 µM), 0.864; in test [4] (first compound 0.1265 µM), 0.746. The relative viability in test [4] (first compound 0.4 µM) worked out at 0.488; in test [4] (first compound 1.265 µM), 0.271; in test [4] (first compound 4 µM), 0.296.
Consider EBC-1, for which the relative viability came to 0.739 in test [2] (first compound 0.04 µM); 0.865 in test [2] (first compound 0.1265 µM); 0.752 in test [2] (first compound 0.4 µM); 0.793 in test [2] (first compound 1.265 µM); 0.623 in test [2] (first compound 4 µM).
On to EKVX, for which the relative viability was 0.225 in test [1] (first compound 0.04 µM); 0.243 in test [1] (first compound 0.1265 µM); 0.14 in test [1] (first compound 0.4 µM); 0.241 in test [1] (first compound 4 µM); 0.876 in test [2] (first compound 0.04 µM); 0.911 in test [2] (first compound 0.1265 µM). In addition, the relative viability in test [2] (first compound 0.4 µM) amounted to 0.804; in test [2] (first compound 1.265 µM), 0.676; in test [2] (first compound 4 µM) it was 0.619; in test [3] (first compound 0.04 µM) it was 0.424; in test [3] (first compound 0.1265 µM), 0.426; in test [3] (first compound 0.4 µM), 0.327. In addition, the relative viability in test [3] (first compound 4 µM) stood at 0.29; in test [4] (first compound 0.04 µM) it was 0.456; in test [4] (first compound 0.1265 µM) it was 0.374; in test [4] (first compound 4 µM), 0.282.
Take EMC-BAC-2: the relative viability in test [1] (first compound 0.04 µM) worked out at 0.527; in test [1] (first compound 0.1265 µM), 0.543; in test [1] (first compound 0.4 µM), 0.514; in test [1] (first compound 1.265 µM) it was 0.382; in test [1] (first compound 4 µM), 0.494; in test [2] (first compound 0.04 µM), 0.727. For the same cell line, the relative viability in test [2] (first compound 0.1265 µM) is 0.712; in test [2] (first compound 0.4 µM), 0.727; in test [2] (first compound 1.265 µM), 0.662; in test [2] (first compound 4 µM), 0.548; in test [3] (first compound 0.04 µM) it was 0.246; in test [3] (first compound 0.1265 µM) it was 0.298. The relative viability in test [3] (first compound 0.4 µM) was determined as 0.248; in test [3] (first compound 1.265 µM), 0.22; in test [3] (first compound 4 µM), 0.217; in test [4] (first compound 0.04 µM) it was 0.508; in test [4] (first compound 0.1265 µM) it was 0.523; in test [4] (first compound 0.4 µM), 0.493. Besides, the relative viability in test [4] (first compound 1.265 µM) was found to be 0.479; in test [4] (first compound 4 µM), 0.463.
EPLC-272H: the relative viability is 0.344 in test [1] (first compound 0.04 µM); 0.295 in test [1] (first compound 0.1265 µM); 0.301 in test [1] (first compound 0.4 µM); 0.278 in test [1] (first compound 1.265 µM); 0.294 in test [1] (first compound 4 µM); 0.968 in test [2] (first compound 0.04 µM). Moreover, the relative viability came to 0.834 in test [2] (first compound 0.1265 µM); 0.881 in test [2] (first compound 0.4 µM); 0.647 in test [2] (first compound 1.265 µM); 0.843 in test [2] (first compound 4 µM); 0.269 in test [3] (first compound 0.04 µM); 0.309 in test [3] (first compound 0.1265 µM). Moreover, the relative viability in test [3] (first compound 0.4 µM) worked out at 0.306; in test [3] (first compound 1.265 µM), 0.169; in test [3] (first compound 4 µM), 0.249; in test [4] (first compound 0.04 µM), 0.337; in test [4] (first compound 0.1265 µM) it was 0.329; in test [4] (first compound 0.4 µM) it was 0.33. For the same cell line, the relative viability in test [4] (first compound 1.265 µM) came to 0.256; in test [4] (first compound 4 µM) it was 0.3.
Consider H3255, for which the relative viability in test [1] (first compound 0.04 µM) amounted to 0.348; in test [1] (first compound 0.1265 µM), 0.387; in test [1] (first compound 0.4 µM), 0.358; in test [1] (first compound 1.265 µM), 0.351; in test [1] (first compound 4 µM), 0.397; in test [2] (first compound 0.04 µM), 0.657. The relative viability turned out to be 0.693 in test [2] (first compound 0.1265 µM); 0.585 in test [2] (first compound 0.4 µM); 0.683 in test [2] (first compound 1.265 µM); 0.525 in test [2] (first compound 4 µM); 0.678 in test [3] (first compound 0.04 µM); 0.693 in test [3] (first compound 0.1265 µM). Also, the relative viability was 0.629 in test [3] (first compound 0.4 µM); 0.626 in test [3] (first compound 1.265 µM); 0.556 in test [3] (first compound 4 µM); 0.327 in test [4] (first compound 0.04 µM); 0.333 in test [4] (first compound 0.1265 µM); 0.346 in test [4] (first compound 0.4 µM). The relative viability was 0.286 in test [4] (first compound 1.265 µM) and 0.342 in test [4] (first compound 4 µM).
Regarding HARA, the relative viability turned out to be 0.466 in test [1] (first compound 0.04 µM); 0.457 in test [1] (first compound 0.1265 µM); 0.499 in test [1] (first compound 0.4 µM); 0.257 in test [1] (first compound 1.265 µM); 0.304 in test [1] (first compound 4 µM); 0.783 in test [2] (first compound 0.04 µM). For the same cell line, the relative viability in test [2] (first compound 0.1265 µM) worked out at 0.819; in test [2] (first compound 0.4 µM) it was 0.741; in test [2] (first compound 4 µM), 0.391; in test [3] (first compound 0.04 µM) it was 0.0876; in test [3] (first compound 0.1265 µM), 0.0858; in test [3] (first compound 0.4 µM) it was 0.0868. For the same cell line, the relative viability is 0.0805 in test [3] (first compound 1.265 µM); 0.0776 in test [3] (first compound 4 µM); 0.269 in test [4] (first compound 0.04 µM); 0.264 in test [4] (first compound 0.1265 µM); 0.228 in test [4] (first compound 0.4 µM); 0.236 in test [4] (first compound 1.265 µM). Further, the relative viability in test [4] (first compound 4 µM) stood at 0.223.
